How the values were obtained:
[1] = test system: human lung cancer strain NCI-H441; test: cells; conditions: NCI-H441, 96 h, read-out: NCI-H441 IC50 (nM), NCI-H441 cell proliferation, 4 days, CellTiter-Glo;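 further: cell proliferation inhibition after four days measured by CellTiter-Glo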
[2] = biological target: GDP-bound NRAS wild-type protein (Homo sapiens, UniProt P01111); test: Binding to NRAS by surface plasmon resonance (SPR), Single Cycle Kinetics; conditions: ratio of KD for GDP-bound NRAS wild-type protein to KD for KRAS, SPR
GDP-bound NRAS wild-type protein, sequence (P01111 whole entry): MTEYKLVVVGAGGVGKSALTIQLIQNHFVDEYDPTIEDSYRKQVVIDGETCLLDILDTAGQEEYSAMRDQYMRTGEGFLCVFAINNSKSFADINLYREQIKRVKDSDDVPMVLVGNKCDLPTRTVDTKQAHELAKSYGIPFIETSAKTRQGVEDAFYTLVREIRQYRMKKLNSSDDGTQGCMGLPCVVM

[3] = biological target: GDP-bound KRAS wild-type protein (Homo sapiens, UniProt P01116); test: Binding to KRAS by surface plasmon resonance (SPR), Single Cycle Kinetics; conditions: SPR, Single Cycle Kinetics, GDP-bound KRAS wild-type protein; read-out: KRAS KD
GDP-bound KRAS wild-type protein, sequence (P01116 whole entry): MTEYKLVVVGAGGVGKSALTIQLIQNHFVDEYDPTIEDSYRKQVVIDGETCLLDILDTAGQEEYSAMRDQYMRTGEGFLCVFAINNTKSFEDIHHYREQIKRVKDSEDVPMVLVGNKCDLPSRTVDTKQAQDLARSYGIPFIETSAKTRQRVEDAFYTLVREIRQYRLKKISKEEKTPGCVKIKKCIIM

[4] = biological target: GDP-bound HRAS wild-type protein (Homo sapiens, UniProt P01112); test: Binding to HRAS by surface plasmon resonance (SPR), Single Cycle Kinetics; conditions: ratio of KD for GDP-bound HRAS wild-type protein to KD for KRAS, SPR
GDP-bound HRAS wild-type protein, sequence (P01112 whole entry): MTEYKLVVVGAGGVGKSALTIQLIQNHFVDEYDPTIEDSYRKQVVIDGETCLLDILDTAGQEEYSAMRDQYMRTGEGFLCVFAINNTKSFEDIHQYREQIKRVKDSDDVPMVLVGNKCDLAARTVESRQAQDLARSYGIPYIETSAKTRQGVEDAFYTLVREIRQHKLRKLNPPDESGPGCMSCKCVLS

Structure (SMILES) | IC50 [1] [nM] | NRAS/KRAS (KD ratio) [2] | Kd [3] [nM] | HRAS/KRAS (KD ratio) [4]
CCC[C@H]1C(=O)N[C@@H]([C@@H](C)CC)C(=O)N(C)CC(=O)N(C)[C@H]2C/C=C\CCN(C2=O)[C@@H](Cc2ccc(C(F)(F)F)cc2)C(=O)N(C)CC(=O)N[C@@H](CCc2cc(F)c(Cl)c(F)c2)C(=O)N2C[C@H](OCC)C[C@H]2C(=O)NC2(CC(C)(C)C2)C(=O)N(C)[C@@H](C2CCCC2)C(=O)N(C)[C@H](C(=O)N(C)C)CC(=O)N1C [PP1758] | 6 | AA (a compound having 20 or more is denoted as AA) | 0.19 | A (a compound having 10 or more and less than 20 is denoted as A)
CCO[C@@H]1C[C@H]2C(=O)NC3(CC(C)(C)C3)C(=O)N(C)[C@@H](C3CCCC3)C(=O)N(C)[C@H](C(=O)N(C)C)CC(=O)N(C)[C@@H](CC3CC3)C(=O)N[C@@H]([C@@H](C)CC)C(=O)N(C)CC(=O)N(C)[C@H]3C/C=C\CCN(C3=O)[C@@H](Cc3ccc(C(F)(F)F)cc3)C(=O)N(C)CC(=O)N[C@@H](CCc3cc(F)c(Cl)c(F)c3)C(=O)N2C1 [PP1759] | 6.2 | A (a compound having 10 or more and less than 20 is denoted as A) | 0.15 | A (a compound having 10 or more and less than 20 is denoted as A)
CCO[C@@H]1C[C@H]2C(=O)NC3(CC(C)(C)C3)C(=O)N(C)[C@@H](C3CCCC3)C(=O)N(C)[C@H](C(=O)N(C)C)CC(=O)N(C)[C@@H](CC(C)C)C(=O)N[C@@H]([C@@H](C)CC)C(=O)N(C)CC(=O)N(C)[C@H]3C/C=C\CCN(C3=O)[C@@H](Cc3ccc(C(F)(F)F)cc3)C(=O)N(C)CC(=O)N[C@@H](CCc3cc(F)c(Cl)c(F)c3)C(=O)N2C1 [PP1761] | 5.2 | A (a compound having 10 or more and less than 20 is denoted as A) | 0.17 | A (a compound having 10 or more and less than 20 is denoted as A)
CCO[C@@H]1C[C@H]2C(=O)NC3(CC(C)(C)C3)C(=O)N(C)[C@@H](C3CCCC3)C(=O)N(C)[C@H](C(=O)N(C)C)CC(=O)N(C)[C@@H](CC3CCC3)C(=O)N[C@@H]([C@@H](C)CC)C(=O)N(C)CC(=O)N(C)[C@H]3C/C=C\CCN(C3=O)[C@@H](Cc3ccc(C(F)(F)F)cc3)C(=O)N(C)CC(=O)N[C@@H](CCc3cc(F)c(Cl)c(F)c3)C(=O)N2C1 [PP1762] | 8.4 | A (a compound having 10 or more and less than 20 is denoted as A) | 0.26 | A (a compound having 10 or more and less than 20 is denoted as A)
CCCN(C)C(=O)[C@@H]1CC(=O)N(C)[C@@H](COC)C(=O)N[C@@H]([C@@H](C)CC)C(=O)N(C)CC(=O)N(C)[C@H]2C/C=C\CCN(C2=O)[C@@H](Cc2ccc(C(F)(F)F)cc2)C(=O)N(C)CC(=O)N[C@@H](CCc2cc(F)c(Cl)c(F)c2)C(=O)N2C[C@H](OCC)C[C@H]2C(=O)NC2(CC(C)(C)C2)C(=O)N(C)[C@@H](C2CCCC2)C(=O)N1C [PP1763] | 13.3 | A (a compound having 10 or more and less than 20 is denoted as A) | 0.23 | A (a compound having 10 or more and less than 20 is denoted as A)
CCCOC[C@H]1C(=O)N[C@@H]([C@@H](C)CC)C(=O)N(C)CC(=O)N(C)[C@H]2C/C=C\CCN(C2=O)[C@@H](Cc2ccc(C(F)(F)F)cc2)C(=O)N(C)CC(=O)N[C@@H](CCc2cc(F)c(Cl)c(F)c2)C(=O)N2C[C@H](OCC)C[C@H]2C(=O)NC2(CC(C)(C)C2)C(=O)N(C)[C@@H](C2CCCC2)C(=O)N(C)[C@H](C(=O)N(C)C)CC(=O)N1C [PP1764] | 11.1 | AA (a compound having 20 or more is denoted as AA) | 0.11 | A (a compound having 10 or more and less than 20 is denoted as A)
CCO[C@@H]1C[C@H]2C(=O)NC3(CCC3)C(=O)N(C)[C@@H](C3CCCC3)C(=O)N(C)[C@H](C(=O)N(C)C)CC(=O)N(CC)[C@@H](CC(C)C)C(=O)N[C@@H]([C@@H](C)CC)C(=O)N(C)CC(=O)N(C)[C@H]3C/C=C\CCN(C3=O)[C@@H](Cc3ccc(C(F)(F)F)cc3)C(=O)N(C)CC(=O)N[C@@H](CCc3cc(F)c(C(F)(F)F)c(F)c3)C(=O)N2C1 [PP1765] | 16.8 | A (a compound having 10 or more and less than 20 is denoted as A) | 0.084 | A (a compound having 10 or more and less than 20 is denoted as A)
CCC[C@H]1C(=O)N[C@@H]([C@@H](C)CC)C(=O)N(CCC)CC(=O)N(C)[C@H]2C/C=C\CCN(C2=O)[C@@H](Cc2ccc(C(F)(F)F)cc2)C(=O)N(C)CC(=O)N[C@@H](CCc2cc(F)c(C(F)(F)F)c(F)c2)C(=O)N2C[C@H](OCC)C[C@H]2C(=O)NC2(CCC2)C(=O)N(C)[C@@H](C2CCCC2)C(=O)N(C)[C@H](C(=O)N(C)C)CC(=O)N1C [PP1767] | 17.9 | A (a compound having 10 or more and less than 20 is denoted as A) | 0.34 | B (a compound having 3 or more and less than 10 is denoted as B)
CCO[C@@H]1C[C@H]2C(=O)NC3(CC(C)(C)C3)C(=O)N(C)[C@@H](C3CCCC3)C(=O)N(CC)[C@H](C(=O)N(C)C)CC(=O)N(C)[C@@H](CC)C(=O)N[C@@H]([C@@H](C)CC)C(=O)N(C)CC(=O)N(C)[C@H]3C/C=C\CCN(C3=O)[C@@H](Cc3ccc(C(F)(F)F)cc3)C(=O)N(C)CC(=O)N[C@@H](CCc3cc(F)c(C(F)(F)F)c(F)c3)C(=O)N2C1 [PP1768] | 4.9 | A (a compound having 10 or more and less than 20 is denoted as A) | 0.32 | A (a compound having 10 or more and less than 20 is denoted as A)
CCC[C@H]1C(=O)N[C@@H]([C@@H](C)CC)C(=O)N(C)CC(=O)N(C)[C@H]2C/C=C\CCN(C2=O)[C@@H](Cc2ccc(C(F)(F)F)cc2)C(=O)N(C)CC(=O)N[C@@H](CCc2cc(F)c(C(F)(F)F)c(F)c2)C(=O)N2C[C@H](OCC)C[C@H]2C(=O)NC2(CCC2)C(=O)N(C)[C@@H](C2CCCC2)C(=O)N(CCC)[C@H](C(=O)N(C)C)CC(=O)N1C [PP1769] | 12.9 | A (a compound having 10 or more and less than 20 is denoted as A) | 0.78 | A (a compound having 10 or more and less than 20 is denoted as A)
CCO[C@@H]1C[C@H]2C(=O)NC3(CC(C)(C)C3)C(=O)N(C)[C@@H](C3CCCC3)C(=O)N(C)[C@H](C(=O)N(C)CC)CC(=O)N(C)[C@@H](CC(C)C)C(=O)N[C@@H]([C@@H](C)CC)C(=O)NCC(=O)N(C)[C@H]3C/C=C\CCN(C3=O)[C@@H](Cc3ccc(C(F)(F)F)cc3)C(=O)N(C)CC(=O)N[C@@H](CCc3cc(F)c(C(F)(F)F)c(F)c3)C(=O)N2C1 [PP1771] | 6.6 | A (a compound having 10 or more and less than 20 is denoted as A) | 0.097 | A (a compound having 10 or more and less than 20 is denoted as A)
CCO[C@@H]1C[C@H]2C(=O)NC3(CC(C)(C)C3)C(=O)N(C)[C@@H](C3CCCC3)C(=O)N(C)[C@H](C(=O)N(C)C)CC(=O)N(CC)[C@@H](CC(C)C)C(=O)N[C@@H]([C@@H](C)CC)C(=O)NCC(=O)N(C)[C@H]3C/C=C\CCN(C3=O)[C@@H](Cc3ccc(C(F)(F)F)cc3)C(=O)N(C)CC(=O)N[C@@H](CCc3cc(F)c(C(F)(F)F)c(F)c3)C(=O)N2C1 [PP1772] | 13.4 | B (a compound having 3 or more and less than 10 is denoted as B) | 0.23 | B (a compound having 3 or more and less than 10 is denoted as B)
CCO[C@@H]1C[C@H]2C(=O)NC3(CC(C)(C)C3)C(=O)N(C)[C@@H](C3CCCC3)C(=O)N(CC)[C@H](C(=O)N(C)C)CC(=O)N(C)[C@@H](CC(C)C)C(=O)N[C@@H]([C@@H](C)CC)C(=O)NCC(=O)N(C)[C@H]3C/C=C\CCN(C3=O)[C@@H](Cc3ccc(C(F)(F)F)cc3)C(=O)N(C)CC(=O)N[C@@H](CCc3cc(F)c(C(F)(F)F)c(F)c3)C(=O)N2C1 [PP1773] | 39.9 | A (a compound having 10 or more and less than 20 is denoted as A) | 0.53 | A (a compound having 10 or more and less than 20 is denoted as A)
CC[C@H](C)[C@@H]1NC(=O)[C@H](CC(C)C)N(C)C(=O)C[C@@H](C(=O)N(C)C)N(C)C(=O)[C@H](C2CCCC2)N(C)C(=O)C2(CC(C)(C)C2)NC(=O)CN(C)C(=O)[C@H](CCc2cc(F)c(C(F)(F)F)c(F)c2)NC(=O)CN(C)C(=O)[C@H](Cc2ccc(C(F)(F)F)cc2)N2CC/C=C\C[C@@H](C2=O)N(C)C(=O)CN(C)C1=O [PP1776] | 98.7 | A (a compound having 10 or more and less than 20 is denoted as A) | 0.54 | A (a compound having 10 or more and less than 20 is denoted as A)
